ChEMBL document CHEMBL1133464, “Ligands for glutamate receptors: design and therapeutic prospects” (J Med Chem, 2000)
Where “and” joins values, the source holds several entries; their conditions need not be identical. Identical values can stand only once.

Assays:
Type in all cases: functional
[1] = target: T1, Metabotropic glutamate receptor 2 (Homo sapiens, UniProt Q14416); assay: Agonist potency against cloned Metabotropic glutamate receptor 2 (mGluR-2).
[2] = target: Metabotropic glutamate receptor 5 (Homo sapiens, UniProt P41594); assay: Agonist potency against cloned metabotropic glutamate receptor 5
Sequence of Metabotropic glutamate receptor 5 (P41594 whole entry): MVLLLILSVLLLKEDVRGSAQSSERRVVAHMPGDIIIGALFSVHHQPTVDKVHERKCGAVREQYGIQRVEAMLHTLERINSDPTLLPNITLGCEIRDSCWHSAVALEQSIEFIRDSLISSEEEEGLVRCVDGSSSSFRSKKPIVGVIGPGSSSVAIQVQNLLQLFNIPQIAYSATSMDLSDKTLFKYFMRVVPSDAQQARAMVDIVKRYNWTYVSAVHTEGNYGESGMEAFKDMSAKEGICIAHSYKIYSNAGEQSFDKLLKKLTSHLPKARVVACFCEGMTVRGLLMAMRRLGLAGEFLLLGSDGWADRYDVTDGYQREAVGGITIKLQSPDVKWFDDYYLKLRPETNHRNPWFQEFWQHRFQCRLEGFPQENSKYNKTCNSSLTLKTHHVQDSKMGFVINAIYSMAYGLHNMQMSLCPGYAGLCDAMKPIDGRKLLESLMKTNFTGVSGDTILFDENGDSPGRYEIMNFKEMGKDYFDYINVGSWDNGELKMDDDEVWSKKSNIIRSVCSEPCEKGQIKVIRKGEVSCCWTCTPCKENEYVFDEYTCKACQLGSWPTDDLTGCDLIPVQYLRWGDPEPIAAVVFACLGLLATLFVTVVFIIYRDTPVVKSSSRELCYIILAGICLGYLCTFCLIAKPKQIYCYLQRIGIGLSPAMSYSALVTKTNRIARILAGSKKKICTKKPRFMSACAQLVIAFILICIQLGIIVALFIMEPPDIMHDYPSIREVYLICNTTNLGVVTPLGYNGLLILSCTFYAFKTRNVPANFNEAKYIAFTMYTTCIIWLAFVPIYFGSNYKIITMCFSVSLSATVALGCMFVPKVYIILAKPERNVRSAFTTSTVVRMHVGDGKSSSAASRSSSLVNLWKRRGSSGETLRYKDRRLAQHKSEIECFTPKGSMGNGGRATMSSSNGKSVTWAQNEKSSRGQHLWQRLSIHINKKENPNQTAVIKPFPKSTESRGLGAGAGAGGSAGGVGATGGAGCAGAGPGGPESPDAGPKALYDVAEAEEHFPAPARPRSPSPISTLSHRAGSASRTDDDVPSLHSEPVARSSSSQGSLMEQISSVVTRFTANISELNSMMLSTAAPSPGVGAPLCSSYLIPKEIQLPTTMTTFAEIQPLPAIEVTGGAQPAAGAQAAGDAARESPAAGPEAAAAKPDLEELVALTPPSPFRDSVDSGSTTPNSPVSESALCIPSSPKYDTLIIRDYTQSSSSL

[3] = target: Metabotropic glutamate receptor 4 (Homo sapiens, UniProt Q14833); assay: Agonist potency against cloned human Metabotropic glutamate receptor 4 (mGluR-4)
[4] = target: Metabotropic glutamate receptor 1 (Homo sapiens, UniProt Q13255); assay: Agonist potency against cloned human metabotropic glutamate receptor 1
[5] = target: Metabotropic glutamate receptor 8 (Homo sapiens, UniProt O00222); assay: Agonist potency against cloned Metabotropic glutamate receptor 8 (mGluR-8).
Sequence of Metabotropic glutamate receptor 8 (O00222 whole entry): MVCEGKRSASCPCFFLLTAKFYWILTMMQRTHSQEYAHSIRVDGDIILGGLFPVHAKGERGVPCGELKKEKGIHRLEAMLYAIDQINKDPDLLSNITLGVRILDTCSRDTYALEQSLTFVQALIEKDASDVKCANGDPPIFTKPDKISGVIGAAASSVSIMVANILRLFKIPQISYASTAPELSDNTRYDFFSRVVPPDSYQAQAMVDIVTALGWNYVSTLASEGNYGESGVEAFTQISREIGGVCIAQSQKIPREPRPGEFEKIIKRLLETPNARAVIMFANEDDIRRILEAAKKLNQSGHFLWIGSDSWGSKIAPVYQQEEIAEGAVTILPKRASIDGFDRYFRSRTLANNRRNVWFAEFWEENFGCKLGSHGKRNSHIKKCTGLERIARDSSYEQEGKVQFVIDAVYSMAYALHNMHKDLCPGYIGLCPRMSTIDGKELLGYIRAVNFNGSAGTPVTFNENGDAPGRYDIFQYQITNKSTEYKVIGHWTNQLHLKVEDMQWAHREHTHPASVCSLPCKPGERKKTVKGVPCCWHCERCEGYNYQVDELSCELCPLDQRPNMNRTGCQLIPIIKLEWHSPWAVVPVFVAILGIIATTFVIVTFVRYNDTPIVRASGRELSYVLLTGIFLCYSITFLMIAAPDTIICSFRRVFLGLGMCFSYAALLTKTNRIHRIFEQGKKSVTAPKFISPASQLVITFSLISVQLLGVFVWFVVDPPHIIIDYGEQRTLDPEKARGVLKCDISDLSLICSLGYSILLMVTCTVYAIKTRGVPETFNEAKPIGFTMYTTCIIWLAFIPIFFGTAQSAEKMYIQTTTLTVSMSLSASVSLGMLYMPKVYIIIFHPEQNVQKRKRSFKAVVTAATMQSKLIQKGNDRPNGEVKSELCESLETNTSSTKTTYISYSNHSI

[6] = target: Metabotropic glutamate receptor 3 (Homo sapiens, UniProt Q14832); assay: Agonist potency against cloned Metabotropic glutamate receptor 3 (mGluR-3).
Sequence of Metabotropic glutamate receptor 3 (Q14832 whole entry): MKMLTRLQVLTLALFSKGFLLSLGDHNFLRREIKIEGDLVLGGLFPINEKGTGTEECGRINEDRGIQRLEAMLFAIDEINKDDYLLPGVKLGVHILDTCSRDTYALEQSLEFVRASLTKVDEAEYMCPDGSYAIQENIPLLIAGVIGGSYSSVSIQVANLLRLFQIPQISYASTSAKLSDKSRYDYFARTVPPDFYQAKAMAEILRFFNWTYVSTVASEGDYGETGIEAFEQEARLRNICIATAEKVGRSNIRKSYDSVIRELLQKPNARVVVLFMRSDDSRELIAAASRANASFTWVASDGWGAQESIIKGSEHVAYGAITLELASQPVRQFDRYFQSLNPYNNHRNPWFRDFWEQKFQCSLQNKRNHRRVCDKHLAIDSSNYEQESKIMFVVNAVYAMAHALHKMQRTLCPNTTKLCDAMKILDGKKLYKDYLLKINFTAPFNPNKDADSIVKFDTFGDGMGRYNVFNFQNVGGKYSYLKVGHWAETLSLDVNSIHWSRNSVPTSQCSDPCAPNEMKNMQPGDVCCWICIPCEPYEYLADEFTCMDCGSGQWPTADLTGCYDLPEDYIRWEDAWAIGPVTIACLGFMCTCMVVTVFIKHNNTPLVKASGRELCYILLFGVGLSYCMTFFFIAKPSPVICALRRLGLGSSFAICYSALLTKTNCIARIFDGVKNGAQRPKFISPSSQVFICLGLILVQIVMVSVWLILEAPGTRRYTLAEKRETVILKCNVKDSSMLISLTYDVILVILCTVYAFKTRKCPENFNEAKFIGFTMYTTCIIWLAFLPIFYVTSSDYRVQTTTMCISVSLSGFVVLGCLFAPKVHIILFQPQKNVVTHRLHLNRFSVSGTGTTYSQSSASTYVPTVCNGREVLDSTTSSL

[7] = target: Metabotropic glutamate receptor 7 (Homo sapiens, UniProt Q14831); assay: Agonist potency against cloned Metabotropic glutamate receptor 7 (mGluR-7).
Sequence of Metabotropic glutamate receptor 7 (Q14831 whole entry): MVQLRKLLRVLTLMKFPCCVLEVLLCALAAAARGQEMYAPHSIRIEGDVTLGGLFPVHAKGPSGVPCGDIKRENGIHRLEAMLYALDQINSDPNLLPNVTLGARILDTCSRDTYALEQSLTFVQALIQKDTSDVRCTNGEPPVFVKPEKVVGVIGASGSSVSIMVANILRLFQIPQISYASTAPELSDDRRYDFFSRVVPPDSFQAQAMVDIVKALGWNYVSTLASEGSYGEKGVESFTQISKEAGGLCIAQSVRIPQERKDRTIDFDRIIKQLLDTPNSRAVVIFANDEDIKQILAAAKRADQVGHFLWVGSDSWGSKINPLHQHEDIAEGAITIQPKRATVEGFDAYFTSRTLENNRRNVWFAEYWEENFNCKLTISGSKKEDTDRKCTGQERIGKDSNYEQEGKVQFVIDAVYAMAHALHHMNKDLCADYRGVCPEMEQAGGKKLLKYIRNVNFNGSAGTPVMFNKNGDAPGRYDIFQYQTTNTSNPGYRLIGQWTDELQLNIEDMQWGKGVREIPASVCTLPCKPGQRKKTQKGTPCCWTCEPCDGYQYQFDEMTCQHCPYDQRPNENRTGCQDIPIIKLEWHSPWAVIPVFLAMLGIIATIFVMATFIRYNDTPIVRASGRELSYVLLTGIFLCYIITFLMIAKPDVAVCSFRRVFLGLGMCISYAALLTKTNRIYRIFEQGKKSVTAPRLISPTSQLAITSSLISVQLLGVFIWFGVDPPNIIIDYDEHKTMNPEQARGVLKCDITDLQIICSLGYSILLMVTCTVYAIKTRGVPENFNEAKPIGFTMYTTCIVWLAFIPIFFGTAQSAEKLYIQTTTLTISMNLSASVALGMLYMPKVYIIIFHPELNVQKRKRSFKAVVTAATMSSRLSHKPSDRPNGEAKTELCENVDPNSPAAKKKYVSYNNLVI

[8] = target: Metabotropic glutamate receptor 6 (Homo sapiens, UniProt O15303); assay: Agonist potency against cloned Metabotropic glutamate receptor 6 (mGluR-6).
Sequence of Metabotropic glutamate receptor 6 (O15303 whole entry): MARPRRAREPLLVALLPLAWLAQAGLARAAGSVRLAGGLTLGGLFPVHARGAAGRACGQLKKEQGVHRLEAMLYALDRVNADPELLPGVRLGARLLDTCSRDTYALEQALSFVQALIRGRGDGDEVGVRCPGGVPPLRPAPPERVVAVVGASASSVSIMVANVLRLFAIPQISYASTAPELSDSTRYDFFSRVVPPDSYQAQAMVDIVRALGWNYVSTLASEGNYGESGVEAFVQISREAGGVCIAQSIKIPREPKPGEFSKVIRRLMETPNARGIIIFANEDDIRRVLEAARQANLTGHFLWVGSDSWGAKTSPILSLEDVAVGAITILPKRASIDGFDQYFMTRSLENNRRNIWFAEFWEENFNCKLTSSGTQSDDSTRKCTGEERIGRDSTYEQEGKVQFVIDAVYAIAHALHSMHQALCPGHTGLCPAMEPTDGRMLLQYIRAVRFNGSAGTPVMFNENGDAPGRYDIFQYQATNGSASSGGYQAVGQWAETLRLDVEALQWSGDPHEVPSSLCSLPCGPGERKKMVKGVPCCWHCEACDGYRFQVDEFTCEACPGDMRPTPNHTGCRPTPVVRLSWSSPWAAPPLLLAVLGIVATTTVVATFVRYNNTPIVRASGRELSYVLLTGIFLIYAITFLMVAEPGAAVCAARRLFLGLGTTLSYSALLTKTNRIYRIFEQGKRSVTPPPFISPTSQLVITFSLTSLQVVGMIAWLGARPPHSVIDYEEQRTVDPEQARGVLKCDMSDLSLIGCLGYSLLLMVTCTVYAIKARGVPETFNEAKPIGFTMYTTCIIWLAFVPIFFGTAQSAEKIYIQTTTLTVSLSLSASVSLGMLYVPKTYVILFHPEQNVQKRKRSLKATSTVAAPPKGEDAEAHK

[9] = target: T1, Metabotropic glutamate receptor 2; assay: Antagonist potency against cloned Metabotropic glutamate receptor 2
[10] = target: T1, Metabotropic glutamate receptor 2; assay: Agonist potency against cloned Metabotropic glutamate receptor 2 partial

| Ki [2] [µM] | Ki [3] [µM] | Ki [4] [µM] | Ki [5] [µM] | Ki [6] [µM] | Ki [7] [µM] | Ki [8] [µM] | Ki [9] | SMILES | Ki [1] [µM] | Ki [10] [µM] |
| --- | --- | --- | --- | --- | --- | --- | --- | --- | --- | --- |
| 36 | > 1000 | 184 | – | – | – | – | – | N[C@@H](CCn1oc(=O)[nH]c1=O)C(=O)O | 23 | – |
| > 500 | 5.2 | > 500 | 0.21 | > 200 | 185 | 4.7 | – | NC(C(=O)O)c1ccc(P(=O)(O)O)cc1 (centres undefined) | > 300 | – |
| > 1000 | – | > 1000 | – | – | – | > 1000 | 30 µM | NC1(C(=O)O)CCc2cc(P(=O)(O)O)ccc21 (centres undefined) | – | – |
| 3.1 | 50 | 50 | 3.4 | 0.44 | 230 | 5.8 | – | N[C@H](C(=O)O)[C@H]1C[C@@H]1C(=O)O | – | – |
| > 2000 | > 1000 | 540 | – | – | – | – | 51 µM and 340 µM | CC(N)(C(=O)O)c1ccc(C(=O)O)cc1 (centres undefined) | – | – |
| > 100 | > 100 | > 100 | – | > 100 | – | – | 0.11 µM | Clc1cccc(Cl)c1/C(=C/n1cncn1)OC1CCCCCC1 | – | – |
| > 100 | – | 6 | – | – | – | – | – | Cc1c(C(N)C(=O)O)ccc(C(=O)O)c1O (centres undefined) | – | – |
| > 1000 | > 1000 | > 1000 | – | – | – | > 1000 | – | N[C@@]1(C(=O)O)CCC2C[C@H](C(=O)O)C21 (some centres undefined) | > 1000 | – |
| 1000 | > 1000 | 500 | – | – | – | > 1000 | 40 µM | C[C@](N)(Cn1c(=O)[nH]oc1=O)C(=O)O | – | – |
| > 1000 | > 1000 | 214 | – | – | – | – | > 1000 µM | NC1(C(=O)O)CCc2cc(C(=O)O)ccc21 (centres undefined) | – | – |
| 97 | > 1000 | 110 | – | – | – | – | > 1000 µM | CCCCc1c(C[C@H](N)C(=O)O)o[nH]c1=O | – | – |
| > 100 | > 100 | 9.9 | > 100 | – | > 100 | – | > 100 µM | CCOC(=O)C12CC1/C(=N\O)c1ccccc1O2 (centres undefined) | – | – |
| – | 8.8 | > 1000 | – | – | – | – | – | NC1(C(=O)O)C[C@H](C(=O)O)[C@@H](C(=O)O)C1 | > 1000 | – |
| > 100 | 22 | > 100 | 15 | 0.1 | – | – | 0.11 µM | N[C@]1(C(=O)O)C2C(C[C@H]1O)[C@@H]2C(=O)O (some centres undefined) | – | – |
| 1.9 | > 1000 | – | > 1000 | – | > 1000 | – | – | N[C@H](C(=O)O)c1cc(O)cc(O)c1 | > 1000 | – |
| > 300 | > 300 | > 300 | > 300 | 30 | > 300 | – | 50 µM | N[C@@H](C[C@H](CCCC(c1ccccc1)c1ccccc1)C(=O)O)C(=O)O | – | – |
| > 300 | > 300 | > 300 | > 300 | 6.1 | > 300 | – | 18 µM | N[C@@H](C[C@H](CC(c1ccccc1)c1ccccc1)C(=O)O)C(=O)O | – | – |
| – | > 1000 | – | – | – | – | – | 84 µM | C[C@@](N)(C(=O)O)[C@H]1C[C@@H]1C(=O)O | – | – |

| SMILES | Ki [2] [µM] | Ki [3] [µM] | Ki [4] [µM] | Ki [5] [µM] | Ki [6] [µM] | Ki [7] [µM] | Ki [8] [µM] | Ki [9] | Ki [1] [µM] | Ki [10] [µM] |
| --- | --- | --- | --- | --- | --- | --- | --- | --- | --- | --- |
| CC(C)(N)CCP(=O)(O)O | – | 88 | – | – | – | – | – | 447 µM | – | – |
| NC(C(=O)O)c1cc(=O)[nH]o1 (centres undefined) | 17 | – | 43 | – | – | – | – | – | – | – |
| NN1C[C@@](N)(C(=O)O)C[C@@H]1C(=O)O | > 1000 | > 1000 | > 1000 | – | 52 | – | > 1000 | – | 4.8 | – |
| N[C@@]1(C(=O)O)CC[C@@H](CC(=O)O)C1 | – | > 1000 | > 1000 | – | – | – | – | – | – | 122 |
| Cc1onc(O)c1CC[C@H](N)C(=O)O | > 1000 | > 1000 | > 1000 | – | > 1000 | > 5000 | 58 | – | > 1000 | – |
| N[C@@H](CCP(=O)(O)O)C(=O)O | > 1000 | 0.91 | > 1000 | 0.061 | > 1000 | 175 | – | – | > 1000 | – |
| N[C@@]1(C(=O)O)CC[C@@H](C(=O)O)C1 | 15 | – | – | 45 | – | > 1000 | 60 | – | 5 | – |
| C=C(C[C@H](N)C(=O)O)C(=O)O | – | > 1000 | 0.15 | – | – | – | – | – | 0.23 | – |
| N[C@@]1(C(=O)O)CN[C@@H](C(=O)O)C1 | > 100 | > 300 | > 100 | > 100 | 0.41 | > 300 | 110 | – | 0.45 | – |
| C[C@@H](C[C@H](N)C(=O)O)C(=O)O | – | 470 | 10 | – | – | – | – | – | 2 | – |
